Source: US10906904B2, “ADO-resistant cysteamine analogs and uses thereof” (HORIZON ORPHAN LLC, priority 2015, dated 2021)
Like-named read-outs stand apart in the source and are kept apart here.

Key:
[1] = system: cystinotic human fibroblasts; assay: Cystine depletion assay; assay type: cell-based; conditions: for Cystine Depletion (%) / Emax: relative to cystine depletion by cysteamine (100%) at a similar concentration; for Emax: Homo sapiens, Fibroblast, 1 h; for Cystine depletion: compound at 50 μM or 100 μM, Tables 1-3; for cystine depletion levels (in words): compared to cysteamine
How it was run: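 Cystinotic human fibroblasts treated with compound at 50 μM or 100 μM for 60 min at 37° C. After homogenisation and acid protein precipitation, cystine measured by HILIC LC-MS/MS and normalised to protein. Depletion expressed as percent of that achieved by cysteamine at similar concentration.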

Cystine reactivity assay [2] = conditions: Table 4
Cystine reactivity assay [3] = assay: Cystine reactivity assay; parameters: Cystine Reactivity: unit not given here; conditions: for Cystine Reactivity Assay (30° C.) (%) Mean Value: percentage of 3 mM cysteamine; for Cystine Reactivity: Tables 1-3; for reactivity with cystine compared to cysteamine (in words): text summary of Tables 1-3
How it was run: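 3 mM test compound incubated with 100 nM BODIPY FL L-cystine in phosphate buffer, pH 7.4, 30 °C; S–S cleavage relieves quenching, raising fluorescence. Rate taken as slope (RFU/min) of linear fit over time, expressed as percentage of 3 mM cysteamine.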

human recombinant ADO = molecular target: T1, human recombinant ADO (Homo sapiens, UniProt Q96SZ5); assay type: in vitro ADME
T1 sequence (Q96SZ5 1-270): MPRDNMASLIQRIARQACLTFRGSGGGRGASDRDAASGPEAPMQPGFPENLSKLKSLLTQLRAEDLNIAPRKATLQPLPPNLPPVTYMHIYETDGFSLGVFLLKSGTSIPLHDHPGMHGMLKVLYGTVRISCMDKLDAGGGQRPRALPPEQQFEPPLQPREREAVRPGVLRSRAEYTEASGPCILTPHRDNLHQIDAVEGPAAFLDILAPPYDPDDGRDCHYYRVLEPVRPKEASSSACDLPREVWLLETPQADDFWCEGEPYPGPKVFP
How it was run: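 Test compound (15 mM) incubated with 60 μg/ml human recombinant ADO and 20 nM O2-sensitive fluorescent probe at 37 °C in sealed chamber. Initial rate of fluorescence increase (ex 380/em 650 nm) gave oxygen consumption, expressed relative to 15 mM cysteamine.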

[4] = Dimethyl sulfide (DMS) detection in rat whole blood following oral compound administration; assay type: in vivo
Method: Male Sprague Dawley (SD) rats (200-250 g) were housed in cages under a 12 hour light/dark cycle with free access to food and water. Temperature and humidity were controlled according to UK Home Office regulations. For oral (po) administration, test compounds were formulated in water at a concentration of 30 mg/mL, to provide a dose of 150 mg/kg when administered orally in a 5 mL/kg dosing volume. Following compound or water (vehicle) administration to rats (n=15 per compound), terminal blood samples (>5 mL) were taken by cardiac puncture under CO2 at defined time-points post oral dosing (pre-dose, 0.25 hour, 0.5 hour, 1 hour and 2 hour). Blood was placed in sealed heparinized Eppendorf tubes on wet ice and stored at 4° C. prior to analyzing DMS levels by gas chromatography (GC).
For each sample of rat blood, 1 mL was added to an evacuated 20 mL GC-Headspace vial containing tetrahydrofuran (THF) internal standard. Headspace vials were sealed with a crimp cap and septum (to prevent the vaporization of volatile sulfur compounds into the open air) and thoroughly vortex mixed. All samples were processed using gas chromatography to measure DMS levels. In short, sulfur containing compounds were thermally liberated into the gas carrier stream and injected (1 μL) into the gas chromatography column (30 m×0.32 mm DB-624 1.8 μm). Under these conditions, the retention time for dimethyl sulfide (DMS) and THF internal standard were approximately 1.83 minutes and 3.82 minutes respectively.
For each analyzed blood sample, the ratio of DMS peak area to THF peak area was calculated. For the DMS calibration curve and assay linearity checks, this ratio was graphically plotted against the concentration of reference DMS standards (blank, 60 nM, 180 nM, 360 nM, 600 nM, 1200 nM, 1800 nM and 3000 nM). The concentration of DMS in each blood sample was calculated from the equation produced by this plot by linear regression analysis. […].

St-HdhQ^111/111 cells = assay: Glutamate-induced neuronal excitotoxicity assay; assay type: cell-based
How it was run: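 Cells were pretreated with compound for 60 min at 33 °C in DMEM under 5% CO2, then exposed to 6 mM L-glutamate for 24 h. Viability was measured as ATP by CellTiter-Glo luminescence. Survival is expressed relative to 100 μM cysteamine, set as 100%.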

[5] = Rodent pharmacokinetic assay (rat); assay type: in vivo; conditions: 2 and 10 mg free base equivalents per kg, intravenous and oral gavage
Method: (§1) Pharmacokinetic parameters of a test compound in a rodent species (mouse and/or rat) were determined by administering a test compound at 2 and 10 mg free base equivalents per kg via the intravenous and oral gavage route to groups of three animals per route.
(§2) Blood samples were taken at various times after administration, plasma prepared, and submitted to analysis for parent drug using a qualified LC-MS-MS assay. Pharmacokinetics parameters derived from the plasma analytical data were determined using non-compartmental analysis.

[6] = system: cryopreserved rat hepatocytes; assay: Rat hepatocyte stability assay
Method: (§3) Rat hepatocytes were used to model in vivo hepatic clearance of the compounds by the ADO enzyme. Briefly, a Hepatocyte Stability Assay was carried out using cryopreserved rat hepatocytes.

[7] = Rodent pharmacokinetic assay (mouse); conditions: for half-life / bioavailability: plasma, 10 mg; for bioavailability: oral
Method: as §1, §2

in vitro = conditions: rat
Method: as §3

in vivo = conditions: mouse, 10 mg
Method: as §1, §2

[8] = Table 4, read-out: Cystine Depletion (%)
[9] = male, Sprague Dawley, rat, in vivo, po, 150 mg/kg, 1 h
[10] = male, Sprague Dawley, rat, in vivo, po, 150 mg/kg, 2 h
[11] = Table 4, relative to 15 mM cysteamine
[12] = relative to 15 mM cysteamine, Tables 1-3
[13] = 2 and 10 mg free base equivalents per kg, intravenous and oral gavage

## CC(N)CS (centres unmarked) [Compound 17515]
[1]; Table 4
  Cystine Depletion (%): 97%
Cystine reactivity assay [2]
  Cystine Reactivity Assay (RT) (RFU) Mean Value: 4000-9000 RFU

## CC1(S)CCNCC1 [Compound 42341]
Cystine reactivity assay [3]; Table 4
  Cystine Reactivity Assay (30° C.) (%) Mean Value: <50%
Cystine reactivity assay [3]; Table 5
  Cystine Reactivity Assay (30° C.) (%) Mean Value: <50%
Human recombinant ADO; human, 15 mM
  ADO Metabolism Assay (%) Mean Value: <25%
[1]; [8]
  Emax: 81%
[1]; Table 5, read-out: Cystine Depletion (%) Mean Value
  Emax: 83%
[4]; male, Sprague Dawley, rat, in vivo, po, 150 mg/kg, 0.5 h
  Mean DMS levels (nM) ± STD, Time 0.5 hr: <60 nM
[4]; [9]
  Mean DMS levels (nM) ± STD, Time 1 hr: <60 nM
[4]; [10]
  Mean DMS levels (nM) ± STD, Time 2 hr: <60 nM
St-HdhQ^111/111 cells; STHdhQ111, 10 μM, 6 mM L-glutamate 24 hours, % of effect of 100 μM cysteamine, read-out: HdhQ^111/111 cell % survival (mean ± STD) Test Conc. 10 μM
  viability at 10 µM: 1 ± 10%
St-HdhQ^111/111 cells; STHdhQ111, 100 μM, 6 mM L-glutamate 24 hours, % of effect of 100 μM cysteamine, read-out: HdhQ^111/111 cell % survival (mean ± STD) Test Conc. 100 μM
  viability at 100 µM: 55 ± 21%

## NCCS [Cysteamine]
Cystine reactivity assay [3]; Table 4
  Cystine Reactivity Assay (30° C.) (%) Mean Value: >90%
Cystine reactivity assay [3]
  Cystine Reactivity: 6543
Human recombinant ADO; [11]
  ADO Metabolism Assay (%) Mean Value: >75%
Human recombinant ADO; [12]
  ADO metabolism: 111%
[1]; Table 4
  Cystine Depletion (%): 100%
[1]
  Cystine depletion: 101%
[1]; disulfide of the compound, 50 μM or 100 μM
  Cystine depletion ( ) = disulfide efficacy: (106%)
[5]
  Rat PK Bioavailability: 62%
  Rat PK-Half life: 0.5 h
[4]; rat whole blood, 150 mg/kg po, 0.5 hr
  Mean DMS levels (nM) ± STD, Time 0.5 hr: 1097 ± 418 nM
[4]; rat whole blood, 150 mg/kg po, 1 hr
  Mean DMS levels (nM) ± STD, Time 1 hr: 1162 ± 373 nM
[4]; rat whole blood, 150 mg/kg po, 2 hr
  Mean DMS levels (nM) ± STD, Time 2 hr: 1437 ± 334 nM
[4]; rat whole blood, 150 mg/kg po, […]
  Mean DMS levels (nM) ± STD, Time […]: 641 ± 324 nM
St-HdhQ^111/111 cells; 10 μM, 6 mM L-glutamate 24 hours, % of effect of 100 μM cysteamine
  HdhQ^111/111 cell % survival (mean ± STD) Test Conc. 10 μM: 20 ± 6%
St-HdhQ^111/111 cells; 100 μM, 6 mM L-glutamate 24 hours, % of effect of 100 μM cysteamine
  HdhQ^111/111 cell % survival (mean ± STD) Test Conc. 100 μM: 105 ± 13%
St-HdhQ^111/111 cells; St-HdhQ^111/111 cells
  inhibition of glutamate-induced excitotoxicity / cell survival (in words): capable of inhibiting glutamate-induced excitotoxicity
Cystine reactivity assay [2]
  Cystine Reactivity Assay (RT) (RFU) Mean Value: 4000-9000 RFU
[6]
  Rat Hepatocytes CLint: 33700 µL/min/mg
[7]; [13]
  Mouse PK Bioavailability: 33%
  Mouse PK-Half life: 2.4 h

## CC(C)(S)CN [Compound 18782]
Human recombinant ADO; human, 15 mM
  ADO Metabolism Assay (%) Mean Value: <25%
[1]; [8]
  Emax: 32%
[4]; [9]
  Mean DMS levels (nM) ± STD, Time 1 hr: <60 nM
[4]; [10]
  Mean DMS levels (nM) ± STD, Time 2 hr: <60 nM
Cystine reactivity assay [2]
  Cystine Reactivity Assay (RT) (RFU) Mean Value: <4000 RFU

## SCCc1ccncc1 [Compound 17522]
Human recombinant ADO; human, 15 mM
  ADO Metabolism Assay (%) Mean Value: <25%
[1]; [8]
  Emax: 6%
Cystine reactivity assay [2]
  Cystine Reactivity Assay (RT) (RFU) Mean Value: <4000 RFU

## SCCN1CCOCC1 [Compound 17328]
Human recombinant ADO; human, 15 mM
  ADO Metabolism Assay (%) Mean Value: <25%
[1]; [8]
  Emax: 13%
Cystine reactivity assay [2]
  Cystine Reactivity Assay (RT) (RFU) Mean Value: <4000 RFU

## CC(N)CS (centres unmarked) [Compound 3c]
Cystine reactivity assay [3]
  Cystine Reactivity: 7733
  reactivity with cystine compared to cysteamine (in words): increased reactivity with cystine compared to cysteamine
Human recombinant ADO
  metabolism by ADO compared to cysteamine (in words): significantly reduced metabolism by ADO compared to cysteamine
[1]
  cystine depletion levels (in words): similar
  Cystine depletion: 97%
[5]
  Rat PK Bioavailability: 23%
  Rat PK-Half life: 0.8 h
[6]
  Rat Hepatocytes CLint: 29500 µL/min/mg

## CC(=O)NCCS [Compound 17287]
Human recombinant ADO; human, 15 mM
  ADO Metabolism Assay (%) Mean Value: <25%
Cystine reactivity assay [2]
  Cystine Reactivity Assay (RT) (RFU) Mean Value: <4000 RFU

## CN1CCC(S)CC1 [Compound 2d]
Cystine reactivity assay [3]
  Cystine Reactivity: 7332
  reactivity with cystine compared to cysteamine (in words): increased reactivity with cystine compared to cysteamine
Human recombinant ADO
  metabolism by ADO compared to cysteamine (in words): significantly reduced metabolism by ADO compared to cysteamine
Human recombinant ADO; human, 15 mM
  ADO metabolism: 1%
[1]
  cystine depletion levels (in words): slightly decreased
  Cystine depletion: 79%
[5]; plasma, read-out: Rat PK Bioavailability
  bioavailability: 34%
[5]; plasma, read-out: Rat PK-Half life (converted)
  half-life: 2.3 h
In vitro; cryopreserved rat hepatocytes
  microsomal CLint at 3 μM: 12600 µL/min/mg
[7]
  half-life: 3.9 h
  bioavailability: 38%

## NCCCS [Compound 17329]
[1]; Table 4
  Cystine Depletion (%): 36%
Cystine reactivity assay [2]
  Cystine Reactivity Assay (RT) (RFU) Mean Value: <4000 RFU

## CC(S)CN (centres unmarked) [Compound 17330]
Cystine reactivity assay [2]
  Cystine Reactivity Assay (RT) (RFU) Mean Value: 4000-9000 RFU

## SCCN1CCCC1 [Compound 2b]
Cystine reactivity assay [3]
  Cystine Reactivity: 12392
  reactivity with cystine compared to cysteamine (in words): increased reactivity with cystine compared to cysteamine
Human recombinant ADO; [12]
  ADO metabolism: 4%
Human recombinant ADO; text summary of Tables 1-3
  metabolism by ADO compared to cysteamine (in words): significantly reduced metabolism by ADO compared to cysteamine
[1]
  cystine depletion levels (in words): similar
  Cystine depletion: 99%
In vivo
  bioavailability: 33%
  half-life: 0.4 h
In vitro; hepatocytes
  microsomal CLint: 15700 µL/min/mg

## CN1CCC(S)CC1 [Compound 17521]
Cystine reactivity assay [3]; Table 4
  Cystine Reactivity Assay (30° C.) (%) Mean Value: 50-90%
Human recombinant ADO; human, 15 mM
  ADO Metabolism Assay (%) Mean Value: <25%
[1]; [8]
  Emax: 79%
Cystine reactivity assay [2]
  Cystine Reactivity Assay (RT) (RFU) Mean Value: 4000-9000 RFU

## SC1CCNCC1 [Compound 2c]
Human recombinant ADO
  metabolism by ADO compared to cysteamine (in words): significantly reduced metabolism by ADO compared to cysteamine
Human recombinant ADO; human, 15 mM
  ADO metabolism: 2%
[1]
  cystine depletion levels (in words): slightly decreased
  Cystine depletion: 73%
[7]
  half-life: 7.1 h
  bioavailability: 74%

## SCCN1CCCC1 [Compound 17518]
Human recombinant ADO; [11]
  ADO Metabolism Assay (%) Mean Value: <25%
[1]; [8]
  Emax: 99%
Cystine reactivity assay [2]
  Cystine Reactivity Assay (RT) (RFU) Mean Value: >9000 RFU
